Laboratory results from ChEMBL document CHEMBL4308841, “Synthesis, in vitro antiproliferative activity, and kinase inhibitory effects of pyrazole-containing diarylureas and diarylamides” (Eur J Med Chem, 2018).

What was measured:
A549 = experiment: Growth inhibition of human A549/ATCC cells incubated for 48 hrs by sulforhodamine B assay; type: functional, cell-based; conditions: A549, 48 h
NCI-H23 = experiment: Growth inhibition of human NCI-H23 cells incubated for 48 hrs by sulforhodamine B assay; type: functional, cell-based; conditions: NCI-H23, 48 h
NCI/ADR-RES = experiment: Growth inhibition of human NCI/ADR-RES cells incubated for 48 hrs by sulforhodamine B assay; type: functional, cell-based
PC-3 = experiment: Growth inhibition of human PC3 cells incubated for 48 hrs by sulforhodamine B assay; type: functional, cell-based; conditions: PC-3, 48 h
MOLT-4 = experiment: Growth inhibition of human MOLT4 cells assessed as cell growth at 0.01 uM incubated for 48 hrs by sulforhodamine B assay relative to control; type: functional; conditions: MOLT-4, 48 h, read-out: Activity
NCI-H460 [1] = experiment: Growth inhibition of human NCI-H460 cells assessed as cell growth at 0.01 uM incubated for 48 hrs by sulforhodamine B assay relative to control; type: functional; conditions: NCI-H460, 48 h, read-out: Activity
HCT-116 [2] = experiment: Growth inhibition of human HCT116 cells assessed as cell growth at 0.01 uM incubated for 48 hrs by sulforhodamine B assay relative to control; type: functional; conditions: HCT-116, 48 h, read-out: Activity
Malme-3M = experiment: Growth inhibition of human MALME-3M cells assessed as cell growth at 0.01 uM incubated for 48 hrs by sulforhodamine B assay relative to control; type: functional; conditions: read-out: Activity
OVCAR-3 = experiment: Growth inhibition of human OVCAR3 cells assessed as cell growth at 0.01 uM incubated for 48 hrs by sulforhodamine B assay relative to control; type: functional; conditions: OVCAR-3, 48 h, read-out: Activity
NCI-H460 [3] = experiment: Growth inhibition of human NCI-H460 cells assessed as cell growth at 0.1 uM incubated for 48 hrs by sulforhodamine B assay relative to control; type: functional; conditions: NCI-H460, 48 h, read-out: Activity
HT-29 = experiment: Growth inhibition of human HT-29 cells assessed as cell growth at 0.1 uM incubated for 48 hrs by sulforhodamine B assay relative to control; type: functional; conditions: HT-29, 48 h, read-out: Activity
M14 = experiment: Growth inhibition of human M14 cells assessed as cell growth at 0.1 uM incubated for 48 hrs by sulforhodamine B assay relative to control; type: functional; conditions: M14, 48 h, read-out: Activity
SR = experiment: Growth inhibition of human SR cells assessed as cell growth at 1 uM incubated for 48 hrs by sulforhodamine B assay relative to control; type: functional; conditions: read-out: Activity
NCI-H322M = experiment: Growth inhibition of human NCI-H322M cells assessed as cell growth at 1 uM incubated for 48 hrs by sulforhodamine B assay relative to control; type: functional; conditions: read-out: Activity
COLO 205 = experiment: Growth inhibition of human COLO205 cells assessed as cell growth at 1 uM incubated for 48 hrs by sulforhodamine B assay relative to control; type: functional; conditions: COLO 205, 48 h, read-out: Activity
HCT-116 [4] = experiment: Growth inhibition of human HCT116 cells assessed as cell growth at 1 uM incubated for 48 hrs by sulforhodamine B assay relative to control; type: functional; conditions: HCT-116, 48 h, read-out: Activity
HCT-15 = experiment: Growth inhibition of human HCT15 cells assessed as cell growth at 1 uM incubated for 48 hrs by sulforhodamine B assay relative to control; type: functional; conditions: HCT-15, 48 h, read-out: Activity
MDA-MB-435 = experiment: Growth inhibition of human MDA-MB-435 cells assessed as cell growth at 1 uM incubated for 48 hrs by sulforhodamine B assay relative to control; type: functional; conditions: MDA-MB-435, 48 h, read-out: Activity
SK-MEL-2 = experiment: Growth inhibition of human SK-MEL-2 cells assessed as cell growth at 1 uM incubated for 48 hrs by sulforhodamine B assay relative to control; type: functional; conditions: SK-MEL-2, 48 h, read-out: Activity
SK-MEL-28 = experiment: Growth inhibition of human SK-MEL-28 cells assessed as cell growth at 1 uM incubated for 48 hrs by sulforhodamine B assay relative to control; type: functional; conditions: SK-MEL-28, 48 h, read-out: Activity
IGROV-1 = experiment: Growth inhibition of human IGROV1 cells assessed as cell growth at 1 uM incubated for 48 hrs by sulforhodamine B assay relative to control; type: functional; conditions: IGROV-1, 48 h, read-out: Activity
786-0 = experiment: Growth inhibition of human 786-0 cells assessed as cell growth at 1 uM incubated for 48 hrs by sulforhodamine B assay relative to control; type: functional; conditions: 786-0, 48 h, read-out: Activity
MDA-MB-231 = experiment: Growth inhibition of human MDA-MB-231 cells assessed as cell growth at 1 uM incubated for 48 hrs by sulforhodamine B assay relative to control; type: functional; conditions: MDA-MB-231, 48 h, read-out: Activity
MDA-MB-468 = experiment: Growth inhibition of human MDA-MB-468 cells assessed as cell growth at 1 uM incubated for 48 hrs by sulforhodamine B assay relative to control; type: functional; conditions: MDA-MB-468, 48 h, read-out: Activity
NCI-H460 [5] = experiment: Growth inhibition of human NCI-H460 cells assessed as cell growth at 100 uM incubated for 48 hrs by sulforhodamine B assay relative to control; type: functional; conditions: NCI-H460, 48 h, read-out: Activity
HCT-116 [6] = experiment: Growth inhibition of human HCT116 cells assessed as cell growth at 100 uM incubated for 48 hrs by sulforhodamine B assay relative to control; type: functional; conditions: HCT-116, 48 h, read-out: Activity
SNB-19 = experiment: Growth inhibition of human SNB19 cells assessed as cell growth at 100 uM incubated for 48 hrs by sulforhodamine B assay relative to control; type: functional; conditions: SNB-19, 48 h, read-out: Activity
SK-MEL-5 = experiment: Growth inhibition of human SK-MEL-5 cells assessed as cell growth at 100 uM incubated for 48 hrs by sulforhodamine B assay relative to control; type: functional; conditions: SK-MEL-5, 48 h, read-out: Activity
OVCAR-4 = experiment: Growth inhibition of human OVCAR4 cells assessed as cell growth at 100 uM incubated for 48 hrs by sulforhodamine B assay relative to control; type: functional; conditions: OVCAR-4, 48 h, read-out: Activity
SN12C = experiment: Growth inhibition of human SN12C cells assessed as cell growth at 100 uM incubated for 48 hrs by sulforhodamine B assay relative to control; type: functional; conditions: read-out: Activity
MCF7 = experiment: Growth inhibition of human MCF7 cells assessed as cell growth at 100 uM incubated for 48 hrs by sulforhodamine B assay relative to control; type: functional; conditions: MCF7, 48 h, read-out: Activity
[7] = read-out: LC50 (the source's name)
[8] = read-out: pLC50 (the source's name) (converted)

COc1cc(Cl)cc(-c2nn(-c3cccc(NC(=O)Nc4cc(C(F)(F)F)cc(C(F)(F)F)c4)c3)cc2-c2ccncc2)c1
IC50 (A549): 0.37 µM | GI50 (A549; read-out: GI50): 0.372 µM | CC50 (A549; [7]): 3.48 µM | TGI (A549; read-out: TGI): 4.68 µM | GI50 (A549; read-out: pGI50 (converted)): 0.372 µM | CC50 (A549; [8]): 34.7 µM | TGI (A549; read-out: pTGI (converted)): 4.68 µM | IC50 (NCI-H23): 0.33 µM | GI50 (NCI-H23; read-out: GI50): 0.328 µM | LC50 (NCI-H23; read-out: LC50): 0.05 µM | TGI (NCI-H23; read-out: TGI): 1.6 µM | GI50 (NCI-H23; read-out: pGI50 (converted)): 0.331 µM | LC50 (NCI-H23; read-out: pLC50 (converted)): 50.1 µM | TGI (NCI-H23; read-out: pTGI (converted)): 1.58 µM | IC50 (NCI/ADR-RES): 0.82 µM | GI50 (NCI/ADR-RES; read-out: GI50): 0.815 µM | CC50 (NCI/ADR-RES; [7]): > 100 µM | TGI (NCI/ADR-RES; read-out: TGI): 9.98 µM | GI50 (NCI/ADR-RES; read-out: pGI50 (converted)): 0.813 µM | CC50 (NCI/ADR-RES; [8]): > 100 µM | TGI (NCI/ADR-RES; read-out: pTGI (converted)): 10 µM | IC50 (PC-3): 0.3 µM | GI50 (PC-3; read-out: GI50): 0.297 µM | CC50 (PC-3; [7]): > 100 µM | TGI (PC-3; read-out: TGI): 1.63 µM | GI50 (PC-3; read-out: pGI50 (converted)): 0.295 µM | CC50 (PC-3; [8]): > 100 µM | TGI (PC-3; read-out: pTGI (converted)): 1.62 µM | growth at 0.01 µM (MOLT-4): 94% | growth at 0.01 µM (NCI-H460 [1]): 101% | growth at 0.01 µM (HCT-116 [2]): 102% | growth at 0.01 µM (Malme-3M): 92% | growth at 0.01 µM (OVCAR-3): 105% | growth at 0.1 µM (NCI-H460 [3]): 101% | growth at 0.1 µM (HT-29): 101% | growth at 0.1 µM (M14): 93% | growth at 1 µM (SR): 28% | growth at 1 µM (NCI-H322M): 49% | growth at 1 µM (COLO 205): 24% | growth at 1 µM (HCT-116 [4]): 7% | growth at 1 µM (HCT-15): 17% | growth at 1 µM (MDA-MB-435): 22% | growth at 1 µM (SK-MEL-2): 40% | growth at 1 µM (SK-MEL-28): 46% | growth at 1 µM (IGROV-1): 33% | growth at 1 µM (786-0): 38% | growth at 1 µM (MDA-MB-231): 29% | growth at 1 µM (MDA-MB-468): 15% | growth at 100 µM (NCI-H460 [5]): -84% | growth at 100 µM (HCT-116 [6]): -88% | growth at 100 µM (SNB-19): -42% | growth at 100 µM (SK-MEL-5): -70% | growth at 100 µM (OVCAR-4): -22% | growth at 100 µM (SN12C): -61% | growth at 100 µM (MCF7): -44%

COc1cc(Cl)cc(-c2nn(-c3cccc(NC(=O)c4ccc(N5CCOCC5)c(C(F)(F)F)c4)c3)cc2-c2ccncc2)c1
IC50 (A549): 9.15 µM | GI50 (A549; read-out: GI50): 9.15 µM | CC50 (A549; [7]): > 100 µM | TGI (A549; read-out: TGI): > 100 µM | GI50 (A549; read-out: pGI50 (converted)): 9.12 µM | CC50 (A549; [8]): > 100 µM | TGI (A549; read-out: pTGI (converted)): > 100 µM | GI50 (NCI-H23; read-out: GI50): 3.07 µM | LC50 (NCI-H23; read-out: LC50): > 100 µM | TGI (NCI-H23; read-out: TGI): > 100 µM | GI50 (NCI-H23; read-out: pGI50 (converted)): 30.9 µM | LC50 (NCI-H23; read-out: pLC50 (converted)): > 100 µM | TGI (NCI-H23; read-out: pTGI (converted)): > 100 µM | GI50 (NCI/ADR-RES; read-out: GI50): 5.17 µM | CC50 (NCI/ADR-RES; [7]): > 100 µM | TGI (NCI/ADR-RES; read-out: TGI): > 100 µM | GI50 (NCI/ADR-RES; read-out: pGI50 (converted)): 6.17 µM | CC50 (NCI/ADR-RES; [8]): > 100 µM | TGI (NCI/ADR-RES; read-out: pTGI (converted)): > 100 µM | IC50 (PC-3): 3.3 µM | GI50 (PC-3; read-out: GI50): 3.3 µM | CC50 (PC-3; [7]): > 100 µM | TGI (PC-3; read-out: TGI): > 100 µM | GI50 (PC-3; read-out: pGI50 (converted)): 3.31 µM | CC50 (PC-3; [8]): > 100 µM | TGI (PC-3; read-out: pTGI (converted)): > 100 µM | growth at 0.01 µM (MOLT-4): 100% | growth at 0.01 µM (NCI-H460 [1]): 102% | growth at 0.01 µM (HCT-116 [2]): 97% | growth at 0.01 µM (Malme-3M): 91% | growth at 0.01 µM (OVCAR-3): 100% | growth at 0.1 µM (NCI-H460 [3]): 102% | growth at 0.1 µM (HT-29): 93% | growth at 0.1 µM (M14): 96% | growth at 1 µM (SR): 52% | growth at 1 µM (NCI-H322M): 55% | growth at 1 µM (COLO 205): 104% | growth at 1 µM (HCT-116 [4]): 90% | growth at 1 µM (HCT-15): 52% | growth at 1 µM (MDA-MB-435): 92% | growth at 1 µM (SK-MEL-2): 98% | growth at 1 µM (SK-MEL-28): 53% | growth at 1 µM (IGROV-1): 104% | growth at 1 µM (786-0): 74% | growth at 1 µM (MDA-MB-231): 78% | growth at 1 µM (MDA-MB-468): 56% | growth at 100 µM (NCI-H460 [5]): 5% | growth at 100 µM (HCT-116 [6]): 25% | growth at 100 µM (SNB-19): 60% | growth at 100 µM (SK-MEL-5): 21% | growth at 100 µM (OVCAR-4): 38% | growth at 100 µM (SN12C): 55% | growth at 100 µM (MCF7): 23%
